Reference: ChEMBL document CHEMBL3351686, “Facile and diastereoselective synthesis of 3,2'-spiropyrrolidine-oxindoles derivatives, their molecular docking and antiproliferative activities” (2015)
In brackets after ≈: the same amount, converted by molar mass.

What was measured:
Salmonella typhimurium [1] = assay: Antibacterial activity against Salmonella typhimurium MTCC 1251 assessed as zone of inhibition at 1 mg/disc after 24 hrs by disc diffusion method; format: functional, Salmonella enterica subsp. enterica serovar Typhimurium
Micrococcus luteus [2] = assay: Antibacterial activity against Micrococcus luteus MTCC 106 assessed as inhibition of visual growth after 24 hrs; format: functional; settings: MTCC 106, 24 h
Candida albicans [3] = assay: Antifungal activity against Candida albicans MTCC 227 assessed as inhibition of visual growth after 48 to 72 hrs; format: functional
Staphylococcus aureus [4] = assay: Antibacterial activity against Staphylococcus aureus MTCC 96 assessed as zone of inhibition at 1 mg/disc after 24 hrs by disc diffusion method; format: functional
Klebsiella aerogenes [5] = assay: Antibacterial activity against Enterobacter aerogenes MTCC 111 assessed as inhibition of visual growth after 24 hrs; format: functional; settings: MTCC 111, 24 h
Klebsiella aerogenes [6] = assay: Antibacterial activity against Enterobacter aerogenes MTCC 111 assessed as zone of inhibition at 1 mg/disc after 24 hrs by disc diffusion method; format: functional
[7] = test system: Staphylococcus epidermidis; assay: Antibacterial activity against Staphylococcus epidermidis MTCC 3615 assessed as zone of inhibition at 1 mg/disc after 24 hrs by disc diffusion method; format: functional
Micrococcus luteus [8] = assay: Antibacterial activity against Micrococcus luteus MTCC 106 assessed as zone of inhibition at 1 mg/disc after 24 hrs by disc diffusion method; format: functional
Malassezia pachydermatis [9] = assay: Antifungal activity against Malassezia pachydermatis assessed as inhibition of visual growth after 48 to 72 hrs; format: functional
Klebsiella pneumoniae [10] = assay: Antibacterial activity against Klebsiella pneumoniae MTCC 109 assessed as inhibition of visual growth after 24 hrs; format: functional; settings: MTCC 109, 24 h
Candida albicans [11] = assay: Antifungal activity against Candida albicans MTCC 227 assessed as zone of inhibition at 1 mg/disc after 48 hrs by disc diffusion method; format: functional
Shigella flexneri [12] = assay: Antibacterial activity against Shigella flexneri MTCC 1457 assessed as zone of inhibition at 1 mg/disc after 24 hrs by disc diffusion method; format: functional
Staphylococcus aureus [13] = assay: Antibacterial activity against methicillin-resistant Staphylococcus aureus assessed as inhibition of visual growth after 24 hrs; format: functional
Shigella flexneri [14] = assay: Antibacterial activity against Shigella flexneri MTCC 1457 assessed as inhibition of visual growth after 24 hrs; format: functional; settings: MTCC 1457, 24 h
Proteus vulgaris [15] = assay: Antibacterial activity against Proteus vulgaris MTCC 1771 assessed as inhibition of visual growth after 24 hrs; format: functional; settings: MTCC 1771, 24 h
Salmonella typhimurium [16] = assay: Antibacterial activity against Salmonella typhimurium MTCC 1251 assessed as inhibition of visual growth after 24 hrs; format: functional, Salmonella enterica subsp. enterica serovar Typhimurium; settings: Salmonella enterica, MTCC 1251, 24 h
Proteus vulgaris [17] = assay: Antibacterial activity against Proteus vulgaris MTCC 1771 assessed as zone of inhibition at 1 mg/disc after 24 hrs by disc diffusion method; format: functional
Staphylococcus aureus [18] = assay: Antibacterial activity against methicillin-resistant Staphylococcus aureus assessed as zone of inhibition at 1 mg/disc after 24 hrs by disc diffusion method; format: functional
Staphylococcus aureus [19] = assay: Antibacterial activity against Staphylococcus aureus MTCC 96 assessed as inhibition of visual growth after 24 hrs; format: functional; settings: MTCC 96, 24 h
[20] = test system: Staphylococcus epidermidis; assay: Antibacterial activity against Staphylococcus epidermidis MTCC 3615 assessed as inhibition of visual growth after 24 hrs; format: functional; settings: MTCC 3615, 24 h
Klebsiella pneumoniae [21] = assay: Antibacterial activity against Klebsiella pneumoniae MTCC 109 assessed as zone of inhibition at 1 mg/disc after 24 hrs by disc diffusion method; format: functional
Malassezia pachydermatis [22] = assay: Antifungal activity against Malassezia pachydermatis assessed as zone of inhibition at 1 mg/disc after 48 hrs by disc diffusion method; format: functional

Row | SMILES | inhibition zone (IZ) (Salmonella typhimurium [1]) [mm] | MIC (Micrococcus luteus [2]) [µg/mL] | MIC (Candida albicans [3]) [µg/mL] | inhibition zone (IZ) (Staphylococcus aureus [4]) [mm] | MIC (Klebsiella aerogenes [5]) [µg/mL] | inhibition zone (IZ) (Klebsiella aerogenes [6]) [mm] | inhibition zone (IZ) [7] [mm] | inhibition zone (IZ) (Micrococcus luteus [8]) [mm] | MIC (Malassezia pachydermatis [9]) [µg/mL] | MIC (Klebsiella pneumoniae [10]) [µg/mL] | inhibition zone (IZ) (Candida albicans [11]) [mm] | inhibition zone (IZ) (Shigella flexneri [12]) [mm] | MIC (Staphylococcus aureus [13]) [µg/mL] | MIC (Shigella flexneri [14]) [µg/mL] | MIC (Salmonella typhimurium [16]) [µg/mL] | inhibition zone (IZ) (Proteus vulgaris [17]) [mm] | inhibition zone (IZ) (Staphylococcus aureus [18]) [mm] | MIC (Staphylococcus aureus [19]) [µg/mL] | MIC [20] [µg/mL] | inhibition zone (IZ) (Klebsiella pneumoniae [21]) [mm] | also measured
1 | N#C[C@]1(C(=O)c2c[nH]c3ccccc23)C2CCCN2[C@]2(C(=O)Nc3ccc([N+](=O)[O-])cc32)[C@@H]1c1cn(-c2ccccc2)nc1-c1ccccc1 (stereo partly specified) | 9 | 500 (≈ 758 µM) | 250 (≈ 379 µM) | 11 | 250 (≈ 379 µM) | 10 | 12 | 8 | 500 (≈ 758 µM) | 250 (≈ 379 µM) | 11 | 8 | 500 (≈ 758 µM) | 500 (≈ 758 µM) | 250 (≈ 379 µM) | 9 | 9 | 125 (≈ 189 µM) | 250 (≈ 379 µM) | 9 | MIC (Proteus vulgaris [15]): 125 µg/mL (≈ 189 µM)
2 | CC(=O)N1CCN(c2ccc(OCC3COC(Cn4ccnc4)(c4ccc(Cl)cc4Cl)O3)cc2)CC1 (stereo unspecified) [KETOCONAZOLE] | 18 | 6.25 (≈ 11.8 µM) | 25 (≈ 47 µM) | 14 | 25 (≈ 47 µM) | 22 | 14 | 26 | 25 (≈ 47 µM) | 6.25 (≈ 11.8 µM) | 28 | 30 | 6.25 (≈ 11.8 µM) | 6.25 (≈ 11.8 µM) | 30 (≈ 56.5 µM) | 30 | 30 | 6.25 (≈ 11.8 µM) | 6.25 (≈ 11.8 µM) | 20 | inhibition zone (IZ) (Malassezia pachydermatis [22]): 26 mm
3 | N#C[C@]1(C(=O)c2c[nH]c3ccccc23)C2CCCN2[C@]2(C(=O)Nc3ccccc32)[C@@H]1c1cn(-c2ccccc2)nc1-c1ccccc1 (stereo partly specified) | 8 | 31.2 (≈ 50.8 µM) | 125 (≈ 203 µM) | 12 | 62.5 (≈ 102 µM) | 12 | 13 | 11 | 500 (≈ 813 µM) | 31.2 (≈ 50.8 µM) | 10 | 10 | 31.2 (≈ 50.8 µM) | 31.2 (≈ 50.8 µM) | 250 (≈ 407 µM) | 12 | 10 | 31.2 (≈ 50.8 µM) | 62.5 (≈ 102 µM) | 9 | inhibition zone (IZ) (Malassezia pachydermatis [22]): 8 mm; MIC (Proteus vulgaris [15]): 125 µg/mL (≈ 203 µM)
4 | N#C[C@]1(C(=O)c2c[nH]c3ccccc23)C2CSCN2[C@]2(C(=O)Nc3ccccc32)[C@@H]1c1cn(-c2ccccc2)nc1-c1ccccc1 (stereo partly specified) | 11 | 500 (≈ 790 µM) | 1250 (≈ 1980 µM) | 14 | 500 (≈ 790 µM) | 13 | 13 | 11 | 250 (≈ 395 µM) | 500 (≈ 790 µM) | 9 | 8 | 500 (≈ 790 µM) | 500 (≈ 790 µM) | 500 (≈ 790 µM) | 10 | 8 | 500 (≈ 790 µM) | 500 (≈ 790 µM) | 10 | inhibition zone (IZ) (Malassezia pachydermatis [22]): 8 mm; MIC (Proteus vulgaris [15]): 500 µg/mL (≈ 790 µM)
